Assay results reported in US20100267561A1, “HERBICIDAL PYRIDAZINONE DERIVATIVES” (priority 2007, published 2010).

Key:
Assay type in all cases: in vivo
[1] = test system: eastern black (E.B.) nightshade (Solanum ptycanthum); assay: Test B pre-/postemergence plant response; details: Preemergence
In short: (§1)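 Visual scoring from 0 (no effect) to 100 (complete control) against untreated controls was done 13 to 15 days after greenhouse treatment. Chemicals were formulated in a surfactant-containing non-phytotoxic solvent and applied to soil preemergence or to 1- to 4-leaf (2-18 cm) plants postemergence.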

[2] = test system: morningglory (Ipomoea coccinea); assay: Test B pre-/postemergence plant response; details: for Morningglory plant response rating: 8 g ai/ha
In short: as §1

[3] = test system: giant foxtail (Setaria faberii); assay: Test B pre-/postemergence plant response; details: for Foxtail, Giant plant response rating: 8 g ai/ha
In short: as §1

[4] = test system: lambsquarters (Chenopodium album); assay: Test B pre-/postemergence plant response; details: for Lambsquarters plant response rating: 8 g ai/ha
In short: as §1

[5] = test system: blackgrass (Alopecurus myosuroides); assay: Test B pre-/postemergence plant response; details: for Blackgrass plant response rating: 8 g ai/ha
In short: as §1

corn (Zea mays) = assay: Test B pre-/postemergence plant response; details: for Corn plant response rating: 8 g ai/ha
In short: as §1

[6] = test system: yellow nutsedge (Cyperus esculentus); assay: Test B pre-/postemergence plant response; details: for Nutsedge, Yellow plant response rating: 8 g ai/ha
In short: as §1

wild oat (Avena fatua) = assay: Test B pre-/postemergence plant response; details: for Oat, Wild plant response rating: 8 g ai/ha
In short: as §1

[7] = test system: velvetleaf (Abutilon theophrasti); assay: Test B pre-/postemergence plant response; details: for Velvetleaf plant response rating: 8 g ai/ha
In short: as §1

[8] = test system: bermudagrass (Cynodon dactylon); assay: Test B pre-/postemergence plant response; details: for Bermudagrass plant response rating: 8 g ai/ha
In short: as §1

[9] = test system: barnyardgrass (Echinochloa crus-galli); assay: Test B flooded paddy test plant response
In short: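 Paddy-water application to 2-leaf plants in pots held under 3 cm of flooding; response is a 0–100 visual control rating against controls after 13 to 15 days, and a dash marks a missing result.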

[10] = test system: windgrass (Apera spica-venti); assay: Test B postemergence plant response; details: for Plant response rating, Windgrass: Postemergence
In short: (§2)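 Emerged plants, 1- to 4-leaf stage, treated; greenhouse 13–15 d; eye-scored vs untreated controls (0–100 scale).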

[11] = test system: chickweed (Stellaria media); assay: Test B postemergence plant response; details: for Plant response rating, Chickweed: Postemergence
In short: as §2

[12] = test system: canarygrass (Phalaris minor); assay: Test B postemergence plant response; details: for Plant response rating, Canarygrass: Postemergence
In short: as §2

[13] = test system: winter barley (Hordeum vulgare); assay: Test B postemergence plant response; details: for Plant response rating, Barley: Postemergence
In short: as §2

[14] = Postemergence, 16 g ai/ha, scale 0 to 100
[15] = Postemergence, 31 g ai/ha, scale 0 to 100, 0 no effect, 100 complete control
[16] = Postemergence, 62 g ai/ha, scale 0 to 100
[17] = Preemergence, 16 g ai/ha, scale 0 to 100 (0 no effect, 100 complete control)
[18] = Preemergence, 31 g ai/ha, 0 to 100 scale, 0 no effect, 100 complete control
[19] = Preemergence, 62 g ai/ha, scale 0 to 100
[20] = 8 g ai/ha, postemergence, 0-100 scale
[21] = 31 g ai/ha, scale 0 to 100, 0 no effect, 100 complete control

CCc1cc(-c2ccc(Cl)c(Cl)c2)nn1-c1c(O)cnn(C)c1=O [Compound 20]
30: Blackgrass plant response rating ([5]; postemergence, 0-100 scale) | Plant response rating, Canarygrass ([12]; 16 g ai/ha, scale 0 to 100)
50: Plant response rating, Foxtail, Giant [3, 18] | Plant response rating, Blackgrass [5, 14] | Oat, Wild plant response rating (wild oat (Avena fatua); postemergence, 0-100 scale) | Plant response rating, Oat, Wild (wild oat (Avena fatua); [18]) | Plant response rating, Canarygrass [12, 21]
90: Plant response rating, Foxtail, Giant [3, 14] | Plant response rating, Blackgrass [5, 18] | Plant response rating, Blackgrass [5, 19] | Plant response rating, Corn (corn (Zea mays); [14]) | Plant response rating, Oat, Wild (wild oat (Avena fatua); [14]) | Plant response rating, Oat, Wild (wild oat (Avena fatua); [15]) | Plant response rating, Oat, Wild (wild oat (Avena fatua); [16]) | Plant response rating, Windgrass ([10]; 62 g ai/ha, scale 0 to 100)
85: Plant response rating, Windgrass [10, 21]
10: Blackgrass plant response rating ([5]; Preemergence, scale 0 to 100)
95: Plant response rating, Foxtail, Giant [3, 15] | Plant response rating, Foxtail, Giant [3, 16] | Plant response rating, Corn (corn (Zea mays); [15]) | Plant response rating, Corn (corn (Zea mays); [19])
100: Plant response rating, Foxtail, Giant [3, 19] | Plant response rating, Lambsquarters [4, 18] | Plant response rating, Lambsquarters [4, 19]
20: Plant response rating, Lambsquarters [4, 17] | Windgrass plant response rating [10, 20]
60: Plant response rating, Blackgrass [5, 16] | Plant response rating, Oat, Wild (wild oat (Avena fatua); [19])
0: Plant response rating, Nightshade, E. B. ([1]; 16 g ai/ha, scale 0 to 100 (0 no effect, 100 complete control)) | Plant response rating, Nightshade, E. B. ([1]; 62 g ai/ha, scale 0 to 100) | Nightshade, E. B. plant response rating ([1]; 8 g ai/ha, scale 0 to 100) | Morningglory plant response rating ([2]; postemergence, 0-100 scale) | Plant response rating, Morningglory [2, 14] | Plant response rating, Morningglory [2, 15] | Plant response rating, Morningglory [2, 16] | Plant response rating, Morningglory [2, 17] | Plant response rating, Morningglory [2, 18] | Plant response rating, Morningglory [2, 19] | Morningglory plant response rating ([2]; Preemergence, scale 0 to 100) | Plant response rating, Foxtail, Giant [3, 17] | Foxtail, Giant plant response rating ([3]; Preemergence, scale 0 to 100) | Lambsquarters plant response rating ([4]; postemergence, 0-100 scale) | Plant response rating, Lambsquarters [4, 14] | Plant response rating, Lambsquarters [4, 15] | Lambsquarters plant response rating ([4]; Preemergence, scale 0 to 100) | Corn plant response rating (corn (Zea mays); postemergence, 0-100 scale) | Corn plant response rating (corn (Zea mays); Preemergence, scale 0 to 100) | Nutsedge, Yellow plant response rating ([6]; postemergence, 0-100 scale) | Plant response rating, Nutsedge, Yellow [6, 14] | Plant response rating, Nutsedge, Yellow [6, 15] | Plant response rating, Nutsedge, Yellow [6, 16] | Plant response rating, Nutsedge, Yellow [6, 18] | Plant response rating, Nutsedge, Yellow [6, 19] | Nutsedge, Yellow plant response rating ([6]; Preemergence, scale 0 to 100) | Plant response rating, Oat, Wild (wild oat (Avena fatua); [17]) | Oat, Wild plant response rating (wild oat (Avena fatua); Preemergence, scale 0 to 100) | Velvetleaf plant response rating ([7]; postemergence, 0-100 scale) | Plant response rating, Velvetleaf [7, 14] | Plant response rating, Velvetleaf [7, 15] | Plant response rating, Velvetleaf [7, 16] | Plant response rating, Velvetleaf [7, 17] | Plant response rating, Velvetleaf [7, 18] | Plant response rating, Velvetleaf [7, 19] | Velvetleaf plant response rating ([7]; Preemergence, scale 0 to 100) | Bermudagrass plant response rating ([8]; postemergence, 0-100 scale) | Plant response rating, Bermudagrass [8, 14] | Plant response rating, Bermudagrass [8, 15] | Plant response rating, Bermudagrass [8, 16] | Bermudagrass plant response rating ([8]; Preemergence, scale 0 to 100 (0 no effect, 100 complete control)) | Plant response rating, Bermudagrass [8, 17] | Plant response rating, Bermudagrass [8, 18] | Plant response rating, Barnyardgrass ([9]; Flood (flooded paddy test), 62 g ai/ha, scale 0 to 100, 0 no effect, 100 complete control) | Plant response rating, Barnyardgrass ([9]; Flood (flooded paddy test), 125 g ai/ha, scale 0 to 100, 0 no effect, 100 complete control) | Plant response rating, Barnyardgrass ([9]; Flood (flooded paddy test), 250 g ai/ha, scale 0 to 100, 0 no effect, 100 complete control) | Plant response rating, Barnyardgrass ([9]; Flood, 31 g ai/ha, scale 0 to 100) | Chickweed plant response rating [11, 20] | Plant response rating, Chickweed ([11]; 16 g ai/ha, scale 0 to 100) | Plant response rating, Chickweed [11, 21] | Plant response rating, Chickweed ([11]; 62 g ai/ha, scale 0 to 100) | Barley plant response rating [13, 20] | Plant response rating, Barley ([13]; 16 g ai/ha, scale 0 to 100, 0 no effect, 100 complete control) | Plant response rating, Barley [13, 21] | Plant response rating, Barley ([13]; 62 g ai/ha, scale 0 to 100)
80: Foxtail, Giant plant response rating ([3]; postemergence, 0-100 scale) | Plant response rating, Corn (corn (Zea mays); [18])
5: Plant response rating, Corn (corn (Zea mays); [17]) | Canarygrass plant response rating [12, 20]
40: Plant response rating, Lambsquarters [4, 16]
70: Plant response rating, Bermudagrass [8, 19] | Plant response rating, Windgrass ([10]; 16 g ai/ha, scale 0 to 100)
